“And” between values parts separate entries of the source, which are not always exact repeats. Equal entries are not always repeated. Where two headings read alike, the source gives them in different places.
Tested on: Pseudomonas syringae pv. porri
Format: in vivo
Settings: for % infection / Total number of positive leaves per object: repeats A and B
[1] = wetting agent 0, leek, natural washing off 15 mm, reading after 8 weeks
[2] = wetting agent (emulsion according to the invention) 0.25%, CuSO4 6 g/L
[3] = wetting agent (emulsion according to the invention) 0.50%, CuSO4 6 g/L
[4] = wetting agent (emulsion according to the invention) 1.00%, CuSO4 6 g/L

Structure (SMILES): O=S(=O)([O-])[O-].[Cu+2] [CuSO4, copper sulfate]
- significant difference to reference product Phyton 27 (statistical test) (copper sulfate with the wetting agent at 0.5% or 1%): equivalent to the reference product
- % infection [1]: 52% and 49%
- Total number of positive leaves per object [1]: 29
- % infection [2]: 35% and 37%
- Total number of positive leaves per object [2]: 18 and 17
- % infection [3]: 31%
- Total number of positive leaves per object [3]: 17 and 16
- % infection [4]: 25% and 27%
- Total number of positive leaves per object [4]: 13 and 15
- leaves attacked / level of infection per mode (without wetting agent, value for the whole mode): more than 50%
